This assay concerns the target cAMP-dependent protein kinase catalytic subunit alpha (Bos taurus, UniProt P00517). The assay is described as follows: PKA assay. Here is the method: The activity of PKA, activated by cAMP, is measured by its ability to transfer phosphate from [gamma-32P]ATP to histone.

From BindingDB's records for doi:10.1021/jm020018f (Sphinx Laboratories, 2002) come the findings set out here.

As a reminder, the IC50 is the concentration that gives 50% inhibition.

Molecules are shown by their SMILES.

In the case of `O=C(N[C@@H]1CNCCC[C@H]1OC(=O)c1cc(O)c(C(=O)[C@@H]2CCCC[C@@H]2C(=O)O)c(O)c1)c1ccc(O)cc1` [4-trans-[4-(cis-2-Carboxycyclohexanoyl)-3,5-dihydroxybenzoyloxy]-3-(4-hydroxybenzamido)azepane], where the note is “pH 7.5, 30 °C”, the concentration for half-maximal inhibition (IC50) stood at 7900 nM.

Compound `O=C(N[C@@H]1CNCCC[C@H]1OC(=O)c1cc(O)c(C(=O)c2ccccc2O)c(O)c1)c1ccc(O)cc1` [4-trans-[4-(2-Hydroxybenzoyl)-3,5-dihydroxybenzoyloxy]-3-(4-hydroxybenzamido)azepane] yielded an IC50 (pH 7.5, 30 °C) of 440 nM.

Take `COc1cccc(OC)c1C(=O)c1c(O)cc(C(=O)O[C@@H]2CCCNC[C@H]2NC(=O)c2ccc(O)cc2)cc1O` [(3R,4R)-3-[(4-hydroxybenzene)amido]azepan-4-yl 4-[(2,6-dimethoxyphenyl)carbonyl]-3,5-dihydroxybenzoate]: the IC50 amounted to 360 nM. This counts as sub-micromolar.

Consider `O=C(N[C@@H]1CNCCC[C@H]1OC(=O)c1cc(O)c(C(=O)c2c(O)cccc2O)c(O)c1)c1ccc(O)cc1` [(3R,4R)-3-[(4-hydroxybenzene)amido]azepan-4-yl 4-[(2,6-dihydroxyphenyl)carbonyl]-3,5-dihydroxybenzoate], for which 440 nM corresponded to half-maximal inhibition (pH 7.5, 30 °C) (IC50).

With `COc1cccc(O)c1C(=O)c1c(O)cc(C(=O)O[C@@H]2CCCNC[C@H]2NC(=O)c2ccc(O)cc2)cc1O` [(3R,4R)-3-[(4-hydroxybenzene)amido]azepan-4-yl 3,5-dihydroxy-4-[(2-hydroxy-6-methoxyphenyl)carbonyl]benzoate], 250 nM corresponded to half-maximal inhibition (IC50).

The compound `O=C(N[C@@H]1CNCCC[C@H]1OC(=O)c1cc(O)c(C(=O)[C@@H]2CCCC[C@H]2C(=O)O)c(O)c1)c1ccc(O)cc1` [(1R,2R)-2-{[2,6-dihydroxy-4-({[(3R,4R)-3-[(4-hydroxybenzene)amido]azepan-4-yl]oxy}carbonyl)phenyl]carbonyl}cyclohexane-1-carboxylic acid] displayed an IC50 (pH 7.5, 30 °C) of 6700 nM.

Take `O=C(N[C@@H]1CNCCC[C@H]1OC(=O)c1cc(O)c(C(=O)c2ccccc2C(=O)O)c(O)c1)c1ccc(O)cc1`: the half-inhibitory concentration (IC50) (pH 7.5, 30 °C) is 1000 nM. Compared with the last compound, the IC50 is about 6.7-fold lower.

Consider `O=C(N[C@@H]1CNCCC[C@H]1OC(=O)c1cc(O)c(Cc2c(O)cccc2C(=O)O)c(O)c1)c1ccc(O)cc1` [2-{[2,6-dihydroxy-4-({[(3R,4R)-3-[(4-hydroxybenzene)amido]azepan-4-yl]oxy}carbonyl)phenyl]methyl}-3-hydroxybenzoic acid], for which the midpoint of inhibition, the IC50, lay at 470 nM.

The compound `COc1cc(C(=O)O[C@@H]2CCCNC[C@H]2NC(=O)c2ccc(O)cc2)cc(OC)c1C(=O)c1c(O)cccc1O` [(3R,4R)-3-[(4-hydroxybenzene)amido]azepan-4-yl 4-[(2,6-dihydroxyphenyl)carbonyl]-3,5-dimethoxybenzoate] showed an IC50 of 4300 nM.

The compound `O=C(N[C@@H]1CNCCC[C@H]1OC(=O)c1cc(O)c(C(=O)c2ccc3ccccc3c2O)c(O)c1)c1ccc(O)cc1` [4-trans-[4-(1-Hydroxy-2-naphthoyl)-3,5-dihydroxybenzoyloxy]-3-(4-hydroxybenzamido)azepane] displayed a concentration for half-maximal inhibition (IC50) of more than 150000 nM.

`O=C(N[C@@H]1CNCCC[C@H]1OC(=O)c1cc(O)c(C2OC(=O)c3cccc(O)c32)c(O)c1)c1ccc(O)cc1` (stereo partly drawn) [trans-4-[3,5-Dihydroxy-4-(4-hydroxy-3-phthlido)benzoyloxy]-3-(4-hydroxybenzamido)azepine] showed a half-maximal inhibitory concentration (IC50) of 300 nM.

Compound `O=C(N[C@@H]1CNCCC[C@H]1OC(=O)c1cc(O)c2c(=O)c3c(C(=O)O)cccc3oc2c1)c1ccc(O)cc1` [8-hydroxy-6-({[(3R,4R)-3-[(4-hydroxybenzene)amido]azepan-4-yl]oxy}carbonyl)-9-oxo-9H-xanthene-1-carboxylic acid] came in with an IC50 of more than 15000 nM.
